Test results reported in US20080200405A1, “Drug Resistance Reversal In Neoplastic Disease” (priority 2007, published 2008).
Counter-ions that a name gives are not always drawn.

Experiments:
TNFα = experiment: Measurement of LPS Induced-TNFα in THP-1 Cells; type: cell-based, human; details: Homo sapiens, THP-1; for IC50: read-out: TNFalpha IC50; for inhibition at 10 µM: compound 10 uM, 5 ng/mL LPS, read-out: Mean Percent Inhibition of TNF-alpha using 5 ng/mL LPS
Experimental: The lipid peroxidation assay method of Ohkawa, H.; Ohishi, N.; Yaki, K. Anal. Biochem. 1979, 95, 351 was used to evaluate […]. […] […] Cells were collected and spun at 1500 g for 10 minutes. Supernatant was collected and analyzed for TNFα.
Mean Percent Inhibition of TNF-alpha by compounds of the present invention is set forth in Table B. TNF-alpha inhibition data is set forth in Table B-1. OT-551 was used in both native form and in the form of nanoparticles. […] Other nitrogenous heterocyclic species of the invention are expected to show similar improvement in efficacy when disposed in nanoparticulate form.

Lipid peroxidation = Lipid peroxidation inhibition (method of Ohkawa); type: biochemical
[1] = system: Doxorubicin resistant SaOS2 cells; experiment: Cancer cell viability (MTT) in the presence or absence of doxorubicin; type: cell-based, human; details: compound 50 ug/mL, 3 days
[2] = system: bFGF-induced angiogenesis in the CAM model; experiment: bFGF (FGF2)-stimulated CAM model; type: in vivo, chicken; details: bFGF/FGF2 1 ug, 30 ug injected; for inhibition in vivo at 0.03 mg: Gallus gallus, read-out: % Inhibition ± SEM
Experimental: In vivo neovascularization was examined by the method previously described by Auerbach et al. (J. Dev. Biol. 41:391-394 (1974)). Ten-day old chicken embryos were purchased from Spafas, Inc. (Preston, Conn.) and were incubated at 37° C. with 55% relative humidity. In the dark, with the aid of a candling lamp, a small hole was punctured in the shell concealing the air sac with a hypodermic needle. A second hole was punctured in the shell on the broadside of the egg directly over an […] portion of the embryonic membrane, as observed during candling. An artificial air sac was created beneath the second hole by applying gentle vacuum to the first hole using a small rubber squeeze bulb. The vacuum caused the chorioallantoic membrane (CAM) to separate from the shell.
For inducing angiogenesis, sterile filter disks were saturated with bFGF (1 μg/ml) (Life Technologies, Gaithersburg, Md.) or other pro-angiogenesis factors and control disks were saturated with PBS without Calcium and Magnesium. Control disks were saturated with PBS without Calcium and Magnesium.
After 24-48 hr, 10-25 ul of test agent was injected intravenously or added topically into the CAM membrane. Eight-Ten eggs/treatment group were used.
The number of vessel branch points contained in a circular region equal to the area of a filter disk was counted for each section. Percent inhibition data are expressed as the quotient of the experimental value minus the negative control value divided by the difference between the positive control value and the negative control value. One image was counted in each CAM preparation, and findings from eight CAM preparations were analyzed for each treatment condition. In addition, each experiment was performed three times. The resulting angiogenesis index is the mean ±SEM (Standard Error of Measurement) of new branch points in each set of treatment. Statistical analysis of blood vessel branching patterns are performed by 1-way analysis of variance (ANOVA) comparing experimental with corresponding control groups. Statistical significance differences are assessed at P value of <0.05.
The CAM model protocol was modified to include stimulus with bFGF. The effect of injected OT 551 was assayed.
TP-H was applied to the CAM model study to determine its respective anti-angiogenesis effects according to the materials and methods provided in Example 1. Basic Fibroblast Growth Factor (bFGF) was used to induce angiogenesis in the CAM model.
Compounds were introduced via injection to the CAM model study to determine its respective anti-angiogenesis effects according to the materials and methods provided in Example 1. bFGF was used to induce angiogenesis in the CAM model.

SMILES | IC50 (TNFα) [µM] | % Lipid Peroxidation inhibition (at 1 uM) (Lipid peroxidation) [%] | Mean OD (×10^−3), MTT viability ([1]; Dox. 10^−6 M (+)) | Mean OD (×10^−3), MTT viability ([1]; absence of Dox. (−)) | inhibition at 10 µM (TNFα) [%] | inhibition in vivo at 0.03 mg [2] [%] | Branch pts ± SEM [2] | melting point | Lipid Peroxidation Inhibition, % Inhibition (Lipid peroxidation; 10 uM) [%] | Lipid Peroxidation Inhibition, % Inhibition (Lipid peroxidation; 100 uM) [%]
COc1ccc(C2=C(c3cc(OC)c(OC)c(OC)c3)C(C)(C)N(O)C2(C)C)cc1C=O.Cl [Compound 46, 5-(2,5,-dihydro-4-(3,4,5-trimethoxyphenyl)-1-hydroxy-2,2,5,5-tetramethyl-1H-pyrrol-3-yl)-2-methoxybenzaldehyde hydrochloride] | 1 | 80.1 | 32.75 ×10^−3 | 79.00 ×10^−3 |  |  |  |  |  | 
CC1(C)CC(O)C(Br)C(C)(C)N1O (stereo not drawn) [Compound 9, 3-Bromo-2,2,6,6-tetramethyl-piperidine-1,4-diol] | 18.9 |  | 234.75 ×10^−3 | 509.00 ×10^−3 | 48 ± 14 | 82.2 ± 6.7 | 58.4 ± 6.52 | 138.5 °C (dec.) |  | 
CC1(C)C=CCC(C)(C)N1O.Cl [Compound 35, 1-hydroxy-1,2,3,6-tetrahydro-2,2,6,6-tetramethylpyridine hydrogen chloride] | 3.8 | 64.4 | 352.75 ×10^−3 | 1128.00 ×10^−3 |  |  |  |  |  | 
CC(C)(C)c1cc(NC(=O)C2CC(C)(C)N(O)C(C)(C)C2)cc(C(C)(C)C)c1O.Cl [Compound 29, N-(3,5-di-tert-butyl-4-hydroxyphenyl)-1-hydroxy-2,2,6,6-tetramethylpiperidine-4-carboxamide hydrogen chloride] | 45.5 | 92.3 | 105.75 ×10^−3 | 1328.00 ×10^−3 |  |  |  |  |  | 
CC1(C)CC(O)(c2ccc(F)cc2)CC(C)(C)N1O.Cl [Compound 57, 4-(4-Fluorophenyl)-1-hydroxyl-2,2,6,6-tetramethylpiperidin-4-ol hydrochloride] | ≥ 100 |  | 426.25 ×10^−3 | 1078.50 ×10^−3 |  |  |  | 220 °C (dec.) |  | 
CC1(C)C=C(CO)CC(C)(C)N1O.Cl [Compound 25] |  | 42.0 | 325.00 ×10^−3 | 1137.50 ×10^−3 |  |  |  |  |  | 
CC1(C)CC(NS(C)(=O)=O)CC(C)(C)N1O [Compound 10, 1-hydroxy-4-methanesulfonamido-2,2,6,6-tetramethylpiperidine] | ≥ 100 |  | 250.00 ×10^−3 | 456.00 ×10^−3 |  | 78.2 ± 9.9 | 60.4 ± 5.0 |  | 85.8 | 
O=C(O)c1cc(C(=O)O)c2c(n1)C(=O)C(=O)c1cc(C(=O)O)[nH]c1-2 [PQQ, pyrroloquinoline quinone, reference compound] |  |  |  |  |  |  |  |  |  | 93.7
CC(C)(C)/[N+]([O-])=C/c1ccccc1 [Compound 17, α-phenyl-t-butyl nitrone, reference compound] |  |  |  |  |  |  |  |  | 0.4 | 
CC1(C)CC(Oc2nsnc2-c2ccccc2)CC(C)(C)N1O.Cl [Compound 44, 1-hydroxy-4-(4-phenyl-1,2,5-thiadiazol-3-yloxy)-2,2,6,6-tetramethylpiperidine hydrochloride] | ≥ 100 |  | 13.25 ×10^−3 | 23.00 ×10^−3 |  |  |  | 220.8 °C (dec.) |  | 
CC1(C)CC(C(N)=O)C(C)(C)N1O (stereo not drawn) [Compound 24, 1-hydroxy-2,2,5,5-tetramethylpyrrolidine-3-carboxamide] | ≥ 100 | 37.0 | 362.00 ×10^−3 | 1166.50 ×10^−3 |  |  |  |  |  | 
CC1(C)CC(CO)C(C)(C)N1O.Cl (stereo not drawn) [Compound 33] |  | 54.9 | 300.00 ×10^−3 | 1237.50 ×10^−3 |  |  |  |  |  | 
CCOCC(C)(C)N(O)C(C)(C)COCC [Compound 40, N-Hydroxyl-N,N-bis(1-ethoxy-2-methylpropan-2-yl)amine hydrochloride] | ≥ 100 | 46.8 | 338.75 ×10^−3 | 1177.25 ×10^−3 |  |  |  |  |  | 
CC1(C)CC(OCc2ccccc2)CC(C)(C)N1O.Cl [Compound 43, 4-Benzyloxy-1-hydroxy-2,2,6,6-tetramethylpiperidine hydrochloride] | ≥ 100 | 88.5 | 324.67 ×10^−3 | 1159.00 ×10^−3 |  |  |  | 181.5 °C (dec.) |  | 
Cc1cc(O)c(O)cc1C(=O)NC1CC(C)(C)N(O)C(C)(C)C1.Cl [Compound 27, 4,5-dihydroxy-2-methyl-N-(1-hydroxy-2,2,6,6-tetramethylpiperidin-4-yl)benzamide hydrogen chloride] | ≥ 100 | 53.4 | 403.75 ×10^−3 | 1038.33 ×10^−3 |  |  |  |  |  | 
CC1(C)COC(=O)C(C)(C)N1O.Cl [Compound 39, N-Hydroxyl-3,3,5,5-tetramethylmorpholin-2-one hydrochloride] | ≥ 100 |  | 311.00 ×10^−3 | 1201.00 ×10^−3 |  |  |  | 145 °C (dec.) |  | 
CC1(C)CC(Oc2nsnc2C#N)CC(C)(C)N1O [Compound 45, hydrochloride] | 30 | 91.5 | 276.50 ×10^−3 | 1063.33 ×10^−3 |  |  |  |  |  | 
CCCCC1(O)CC(C)(C)N(O)C(C)(C)C1.Cl [Compound 41, 1,4-dihydroxy-4-n-butyl-2,2,6,6-tetramethylpiperidine hydrochloride] | 0.9 |  | 261.25 ×10^−3 | 824.75 ×10^−3 |  |  |  | 187 °C (dec.) |  | 
CC1(C)CC(O)(c2ccccc2)CC(C)(C)N1O.Cl [Compound 42, 1,4-Dihydroxy-4-phenyl-2,2,6,6-tetramethylpiperidine hydrochloride] | 1 | 83.8 | 311.00 ×10^−3 | 1068.67 ×10^−3 |  |  |  | 201.7 °C (dec.) |  | 
CC1(C)C=C(CO)C(C)(C)N1O [Compound 8, 2,5-dihydro-2,2,5,5-tetramethyl-1-hydroxyl-1H-pyrrol-3-yl)methanol hydrogen chloride] | 20.3 |  | 197.25 ×10^−3 | 392.50 ×10^−3 | 55 ± 6 | 88.1 ± 7.6 | 57.8 ± 8.02 |  |  | 
